Measured values reported in patent publication US11607458B2 (Georgia State University Research Foundation, Inc, priority 2017, dated 2023).
Values joined by “and” are separate entries in the source; they are usually repeats but may differ in a detail not shown here. Equal values may be shown once. Read-outs that look alike come from different tables or passages of the source.

Test system: HeLa cells
Experiment: Cytotoxicity studies in HeLa cells (MTT assay / crystal violet assay)
Type: cell-based
Method: Cell cultures. HeLa cells (ATCC) were used in the following cell culture studies. HeLa cells were maintained in DMEM (Dulbecco's Modified Eagle's Medium) supplemented with 10% fetal bovine serum (MidSci; S01520HI), and 1% penicillin-streptomycin (Sigma-Aldrich; P4333) at 37° C. with 5% CO2.
Cytotoxicity studies. Test compound was dissolved in DMSO to afford a stock solution. The final concentration of DMSO in the cell culture was 1% (v/v) in PBS. HeLa cells were seeded in 96-well plates one day before the experiment. Different concentrations of prodrug was added into the cell culture. The cells were then incubated for 48 h at 37° C. with 5% CO2. The cell viability was tested by the MTT assay described in Levitz, S. M., et al. J Infect Dis 1985, 152, 938-945. Specifically, after 48 h of incubation, 5 mg/mL MTT (3-(4,5-dimethylthiazol-2-yl)-2,5-diphenyltetrazolium bromide) was added into the cell culture. After incubation for 4 h, the supernatant was removed and 100 μL DMSO was added into the wells containing the cells. After shaking gently for 3 min, absorbance at 605 nm was read by a plate reader.
Cytotoxicity studies using crystal violet assay. The test compound was dissolved in DMSO to afford a stock solution. The final concentration of DMSO in cell culture was 1% (v/v) in PBS. HeLa cells were seeded in 96-well plates one day before the experiment. Different concentrations of the test compound were added into the cell culture. The cells were then incubated for 48 h at 37° C. with 5% CO2. Cell viability was tested by the crystal violet assay. Specifically, after 48 h of incubation, the cells were fixed in 100% methanol for 10 min and stained for 20 min with a 1% crystal violet solution in 50% methanol, followed by 5 repeated washings with PBS. 50 μL of DMSO was added to each well. After 20 min of incubation, the plates were analyzed in a microplate reader at 595 nm.
Similar results were observed when the alkyne concentration was decreased to 10 μM. For example, the IC50 of TPP-Dox prodrug 1c was about 2 μM in the presence of 2b, while the IC50 for Dox prodrug 1b was well over 10 μM in the presence of 10 μM of the alkyne trigger 2a (FIG. 3a). As controls, both the IC50 values of 1c and 2b alone were higher than 40 μM, and the treatment of 20 μM of alkyne 2a or 2b alone had no effect on cell viability. […] Without such an enrichment, the reaction is expected to be slow, resulting in a lower level of active Dox being released. […] Thus, mitochondrial enrichment leads to triggered release of the drug. The same concept is applicable to the delivery of drugs through other targeting approaches such as receptor-mediated drug delivery.

C#CCOc1ccc(-c2nnc(C(=O)NC3CC(OC4CC(O)(C(=O)CO)Cc5c(O)c6c(c(O)c54)C(=O)c4c(OC)cccc4C6=O)OC(C)C3O)nn2)cc1 (stereo not shown) [1b]
IC50 (compound alone, 48 h, read-out: IC50 in Hela cell line): > 100000 nM
IC50 (in the presence of 10 μM alkyne trigger 2a, 48 hours (FIG. 3a), read-out: IC50 in HeLa cells): > 10000 nM
IC50 (in the presence of 20 μM alkyne 2a, 48 hours (FIG. 3b), read-out: IC50 in HeLa cells): ~10000 nM
IC50 (in the presence of 50 μM alkyne 2b, 48 h, listed as Dox-prodrug 1b, read-out: IC50 in Hela cell line): ~2000 nM
IC50 (in the presence of 50 μM alkyne 2b, 48 h, listed as Dox-prodrug lb, read-out: IC50 in Hela cell line): 2300 ± 400 nM
IC50 (in the presence of 50 μM alkyne 2d, 48 h, listed as Dox-prodrug 1b, read-out: IC50 in Hela cell line): ~1500 nM and 1500 nM
IC50 (in the presence of 100 μM alkyne 2d, 48 h, read-out: IC50 in Hela cell line): 1300 ± 200 nM

COc1cccc2c1C(=O)c1c(O)c3c(c(O)c1C2=O)CC(O)(C(=O)CO)CC3OC1CC(NC(=O)c2nnc(-c3ccc(OCc4cn(CCCCCCCCC[P+](c5ccccc5)(c5ccccc5)c5ccccc5)nn4)cc3)nn2)C(O)C(C)O1 (stereo not shown) [1c]
IC50 (Homo sapiens, HeLa, 48 h, compound alone, 48 h, read-out: IC50 in Hela cell line): > 40000 nM
IC50 (Homo sapiens, HeLa, 48 h, in the presence of 10 μM alkyne 2b, 48 hours (FIG. 3a), read-out: IC50 in HeLa cells): ~2000 nM
IC50 (Homo sapiens, HeLa, 48 h, in the presence of 20 μM TPP-alkyne 2b, 48 hours (FIG. 3b), read-out: IC50 in HeLa cells): ~1500 nM
